Reference: patent US7601708B2, “Bile-acid derived compounds for providing sustained systemic concentrations of drugs after oral administration” (XenoPort, Inc., priority 2000, dated 2009)

What was measured:
[1] = biological target: T1, LBAT (Homo sapiens, UniProt Q14973); assay: Electrogenic transport in Xenopus oocytes expressing LBAT; assay type: cell-based; details: maximal induced current relative to glycodeoxycholate (100 μM)
T1 sequence (Q14973 1-349): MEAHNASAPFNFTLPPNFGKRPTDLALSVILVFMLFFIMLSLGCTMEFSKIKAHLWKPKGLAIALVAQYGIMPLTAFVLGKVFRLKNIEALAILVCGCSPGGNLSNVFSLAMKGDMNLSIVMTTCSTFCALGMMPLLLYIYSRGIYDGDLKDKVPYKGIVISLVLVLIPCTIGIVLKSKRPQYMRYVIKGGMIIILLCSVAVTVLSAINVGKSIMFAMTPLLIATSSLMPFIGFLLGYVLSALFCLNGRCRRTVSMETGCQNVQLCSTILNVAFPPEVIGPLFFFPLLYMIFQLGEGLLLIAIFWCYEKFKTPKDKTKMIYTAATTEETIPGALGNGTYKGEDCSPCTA
Procedure: (b) Analysis of Electrogenic Transport in Xenopus Oocytes RNA Preparation: Human IBAT and LBAT Transporter cDNAs were subcloned into a modified pGEM plasmid that contains [NT] untranslated sequences from the Xenopus β-actin gene. These sequences increase RNA stability and protein expression. […] Xenopus oocyte isolation. Xenopus laevis frogs were anesthetized by immersion in Tricaine ([…] in deionized water) for 15 min. […] The oocytes were washed 6 times, and the buffer changed to frog ringer solution containing CaCl2 (1.8 mM). Remaining follicle cells were removed if necessary. Cells were incubated at 16° C., and each oocyte injected with […] solution. Electrophysiology measurements. […] Bath flow was controlled by an automated perfusion system (ALA Scientific Instruments, solenoid valves). For transporter pharmacology, oocytes were clamped at -60 to -90 mV, and continuous current measurements acquired using PowerLab Software and an ADInstruments digitizer. Current signals were lowpass filtered at 20 Hz and acquired at 4-8 Hz. All bath and drug-containing solutions were frog ringers solution containing CaCl2. […] The difference current (baseline subtracted from peak current during drug application) reflected the net movement of charge resulting from electrogenic transport and was directly proportional to tranport rate.

[2] = Secretion in bile after oral administration to bile duct-cannulated rats; assay type: in vivo, Sprague-Dawley rats; details: single oral dose of (8) 85.25 mg/kg
Procedure: Sustained release of gabapentin from a prodrug that is subject to enterohepatic recirculation requires that a proportion of the intact prodrug be absorbed after oral administration and subsequently secreted into the bile intact. The potential for enterohepatic recirculation of intact (8) was examined in rats with indwelling bile duct fistulae. […] Bile was collected continuously in aliquots over 24 hours. Plasma and bile samples were frozen at −80° C. until analyzed. […] Concentrations of intact (8) in bile were similarly determined by LC/MS/MS. Bile (20 μL) was diluted 1:1000 with methanol and injected directly onto the HPLC system. Concentrations of (8) in bile reached a maximum at ˜6 hours post-dosing and were sustained up to 24 hours.

[3] = biological target: T2, IBAT (Homo sapiens, UniProt Q12908); assay: In vitro uptake by CHO cells transfected with IBAT evaluated by LC-MS/MS; assay type: cell-based; details: 0.06 to 1000 μM, 10 min; uptake by untransfected CHO K1 cells subtracted
T2 construct: expressed in transfected cells; host or cells: CHO
Procedure: (§1) Active transport of (8) by the bile acid transport system was evaluated in vitro by incubation of (8) or glycocholate (control substrate) with untransfected CHO K1 cells or CHO cells transfected with either IBAT or LBAT. Cells (10^5 cells/mL) were incubated in 96 well plates with varying concentrations (0.06 to 1000 μM) of (8) or glycocholate for 10 min. Cells were then washed with Hank's Balanced Salt Solution (HBSS) and lysed and extracted by addition of 100 μL of water followed by sonication. Concentrations of (8) or glycocholate in cell extracts were determined by direct injection onto an API 2000 LC/MS/MS equipped with an Agilent 1100 binary pump and autosampler. Separation was achieved using a Keystone BDS Hypersil 2×50 mm column heated to 45° C. during the analysis. The mobile phases were: 0.1% formic acid in water (A) and 0.1% formic acid in acetonitrile (B). The gradient condition was: 5% B for 1 min, increasing to 90% B in 0.2 min, maintained for 2.8 min and returning to 5% B for 2 min. A TurboIonSpray source was used on the API 2000. The analysis was performed in the positive ion mode and MRM transitions of 466/412 and 562/154 were used in the analysis of glycocholate and (8), respectively. Ten microliters of the cell extracts were injected. Peaks were integrated using Analyst quantitation software. […]

[4] = biological target: T3, Carboxypeptidase A (Bos taurus, UniProt P00730); assay: Stability towards purified carboxypeptidase A; assay type: in vitro ADME; details: Carboxypeptidase A (10 units/mL); substrate 2.0 μM; no cofactors; 37° C.
T3 sequence (P00730 111-419): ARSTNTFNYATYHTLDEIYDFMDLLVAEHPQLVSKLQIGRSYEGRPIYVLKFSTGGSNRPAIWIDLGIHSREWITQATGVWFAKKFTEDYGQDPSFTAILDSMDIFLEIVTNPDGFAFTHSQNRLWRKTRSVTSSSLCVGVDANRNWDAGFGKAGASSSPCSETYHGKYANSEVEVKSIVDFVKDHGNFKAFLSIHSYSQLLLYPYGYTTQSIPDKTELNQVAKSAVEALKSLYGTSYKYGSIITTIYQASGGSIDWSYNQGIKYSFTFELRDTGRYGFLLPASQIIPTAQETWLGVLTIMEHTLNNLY

[5] = male, Sprague-Dawley, rat, in vivo, po, 85.25 mg/kg
[6] = biological target: T4, LBAT (Homo sapiens, UniProt Q14973); assay: In vitro uptake by CHO cells transfected with LBAT evaluated by LC-MS/MS; assay type: cell-based; details: 0.06 to 1000 μM, 10 min; uptake by untransfected CHO K1 cells subtracted
T4 construct: expressed in transfected cells; host or cells: CHO
Procedure: as §1

[7] = Pharmacokinetics after oral administration to rats; details: single oral dose of gabapentin 25 mg/kg

T2 sequence (Q12908 whole entry): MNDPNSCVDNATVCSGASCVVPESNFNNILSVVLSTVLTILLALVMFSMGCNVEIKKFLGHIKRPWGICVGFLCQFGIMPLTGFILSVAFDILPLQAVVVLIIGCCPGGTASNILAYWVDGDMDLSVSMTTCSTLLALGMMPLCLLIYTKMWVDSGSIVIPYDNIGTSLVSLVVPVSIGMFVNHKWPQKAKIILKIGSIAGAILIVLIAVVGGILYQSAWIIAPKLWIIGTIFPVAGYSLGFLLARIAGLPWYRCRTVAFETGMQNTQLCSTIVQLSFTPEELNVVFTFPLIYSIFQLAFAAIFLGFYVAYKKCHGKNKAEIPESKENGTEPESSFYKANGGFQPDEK

With `CC(CCC(=O)NCC(=O)NCC1(CC(=O)O)CCCCC1)C1CCC2C3C(O)CC4CC(O)CCC4(C)C3CC(O)C12C` (stereo not shown) [(13), Cholyl-Gly-Gabapentin] the “% Max. (GDC)” value [1] was 38%.
For `CC(CCC(=O)NCC1(CC(=O)O)CCCCC1)C1CCC2C3C(O)CC4CC(O)CCC4(C)C3CC(O)C12C` (stereo not shown) [Compound (8)], the “time of maximum concentration of (8) in bile” value [2] was ~6 h, the “time to which concentrations of (8) in bile were sustained” value [2] was 24 h and the “gabapentin in plasma of bile duct-cannulated rats” value ([2]; analyte gabapentin) was “no gabapentin was detected”. The “Active uptake into IBAT transfected cells” value [3] was “Active uptake”, the “Percent of Gabapentin Released in 60 min” value [4] was “Stable” and the “time of maximum concentration of intact (8) in plasma” value [5] was ~8 h. The “time to which concentrations of intact (8) in plasma were sustained” value [5] was 24 h and the “Active uptake into LBAT transfected cells” value [6] was “Active uptake”.
With `NCC1(CC(=O)O)CCCCC1` [gabapentin, 1-aminomethyl-1-cyclohexaneacetic acid] the “terminal half-life of gabapentin in plasma” value [7] was 2.4 ± 0.5 h.
